Experimental data from patent publication US20240252668A1, “ANTIBODY DRUG CONJUGATES AND METHODS FOR MAKING THEREOF” (Novartis AG, priority 2021, published 2024).
Where two headings read alike, the source gives them in different places. Starred links: 1 amine or outer side, 2 acyl side, 3 side chain; linkers in the order of their positions; H or OH if unused. Positions of bridges follow the written chain, without caps; N, C: chain ends. Non-standard residues stand in square brackets, D forms with d. Residues, ends and D or L forms follow the SMILES beside them. *: point of attachment. Leu(3R-O(AcLeu(3R-OH))) = CC(=O)N[C@H](C(=O)O[C@H](C(C)C)[C@H](N)C(=O)O)[C@H](O)C(C)C; Leu(3R-OH,Nα-propionyl) = CCC(=O)N[C@H](C(=O)*)[C@H](O)C(C)C; X1 = CC(C)[C@@H](O[*:3])[C@H](N[*:1])C(=O)[*:2]; X5 = CSC[C@@H](O[*:3])[C@H](N[*:1])C(=O)[*:2]; X4 = CCC(=O)N[C@H](C(=O)*)[C@H](O)CSC; NMeT = CN[C@H](C(=O)O)[C@@H](C)O; dPhLac = O=C(O)[C@H](O)Cc1ccccc1; NMeA = CN[C@@H](C)C(=O)O; dNMeA = CN[C@H](C)C(=O)O; NMeDha = C=C(NC)C(=O)O

How the values were obtained:
[1] = system: 92.1 uveal melanoma cell line (heterozygous GNAQ Q209L); experiment: Cell proliferation assay (resazurin cell viability), 92.1 cell line; type: cell-based
Text: (§1) Cell Proliferation Assays with Chromodepsins (compounds (A1) and 2-15): Cell line descriptions: 92.1—uveal melanoma cell line, derived from primary tumor, harboring heterozygous GNAQ Q209L mutation. Purchased from Sigma Aldrich. MP41 (CRL-3297) -uveal melanoma cell line, derived from primary tumor, harboring heterozygous GNA11 Q209L mutation. Purchased from ATCC. A375—skin melanoma cell line, harboring homozygous BRAF V600E mutation. Origin: Cancer Cell Line Encyclopedia (CCLE). SK-MEL-30—skin melanoma cell line, harboring heterozygous NRAS Q61K mutation. Origin: CCLE.
(§2) Cells were cultured in 96-well plates in a total volume of 100 μL at 37° C., 5% CO2 and 95% relative humidity. All cell lines were cultured in RPMI Medium (RPMI 1640 w/o L-glutamine, Bioconcept ref. 1-41F01-I) except A375, DMEM medium (DMEM high glucose (4.5 g/L), Bioconcept, ref. 1-26F01-I), and supplemented with 10% FCS (Bioconcept, ref. 2-01F30-I). Two to three thousand cells were seeded in 96-well plates per well the night before they were treated with compounds (concentration range: from 260 nM to 0.036 nM with ⅓ dilution steps; for 7 the concentration range was increased from 10000 nM to 1.52 nM with ⅓ dilution steps). Cell viability was measured by addition of 10 ul of resazurin per well after 96 hours of treatment. Results were analyzed and plotted using GraphPad Prism 9.0.1.

[2] = system: MP41 uveal melanoma cell line (heterozygous GNA11 Q209L); experiment: Cell proliferation assay (resazurin cell viability), MP41 cell line; type: cell-based
Text: as §1, §2

[3] = system: A375 skin melanoma cell line (homozygous BRAF V600E); experiment: Cell proliferation assay (resazurin cell viability), A375 cell line; type: cell-based
Text: as §1, §2

[4] = system: SK-MEL-30 skin melanoma cell line (heterozygous NRAS Q61K); experiment: Cell proliferation assay (resazurin cell viability), SK-MEL-30 cell line; type: cell-based
Text: as §1, §2

[5] = system: 92.1 and MP41 cell lines (GNAQ/GNA11 mutant uveal melanoma); experiment: Cell proliferation assays, potency ranking over both uveal melanoma lines; type: cell-based; details: 92.1 and MP41 cell lines
Text: The selective antiproliferative profile of the chromodepsins against GNAQ/GNA11 mutant cell lines is confirmed by the lack of activity against the A375 and SK MEL 30 cell lines that are independent from GNAQ/GNA11 signaling. The potency ranking using the 92.1 and MP41 cell lines is in good agreement with the previously SAR studies. […] These findings are in line with a recent report from Voss et al., highlighting the importance of the “lipophilic anchors” of compound (A1) at the residues varied in compounds 2 and 3, in context of binding kinetics and prolonged residence time on the target proteins. The retained potency of compound 4 indicates a promising exit vector for potential synthetic or biosynthetic modifications of the scaffold. […] The linearized depsipeptides compounds 5-7 lack any antiproliferative activity. In this experimental setup, the cellular permeability of the compounds was a crucial factor contributing to the observed antiproliferative potency. Therefore, all compounds were characterized in a low efflux MCDK assay and determined their exposed polar surface areas (EPSA) in order to assess their passive cellular permeabilities. All macrocyclic chromodepsins that feature the N acyl Hle side chain show similar results concerning their % fraction absorbed (% FA; average ˜60% FA+20%) and EPSA values.
as §1, §2

MDCK-LE monolayers = experiment: Cell-based transwell assay with MDCK-low efflux monolayers (passive permeability); type: in vitro ADME; details: MDCK-LE monolayers
Procedure: Cell-based transwell assays with MDCK-low efflux monolayers: Compounds (A1) and 2-15 were tested in MDCK cell sub-clones with low effluxt ransporter activity (MDCK-LE) in order to determine their passive permeability. The incubations were performed at a contract research organization as described previously.

[6] = EPSA determination by supercritical fluid chromatography; type: physicochemical; details: modified EPSA method, SFC
Procedure: […] by supercritical fluid chromatography: Compounds (A1) and 2-15 were tested by supercritical fluid chromatography (SFC) to determine their ESAPSA values. Samples were analyzed using a Chirex 3014 column ([…], 3×100 mm column, 100 Å pore size; Phenomenex. The starting conditions were 5% methanol containing 20 mM ammonium formate and 95% scCO2. The gradient was increased linearly to 60% methanol containing 20 mM ammonium formate in 4.5 min.

[7] = 92.1 (GNAQ Q209L), 96 hours of treatment, read-out: GI50 by cell line, 92.1
[8] = 92.1 cell line, average of Rep. 1 and 2, read-out: GI50 92.1 Average
[9] = 92.1 cell line, replicate 1, read-out: GI50 92.1 Rep. 1
[10] = 92.1 cell line, replicate 2, read-out: GI50 92.1 Rep. 2
[11] = MP41 (GNA11 Q209L), 96 hours of treatment, read-out: GI50 by cell line, MP41
[12] = MP41 cell line, average of Rep. 1 and 2, read-out: GI50 MP41 Average
[13] = MP41 cell line, replicate 1, read-out: GI50 MP41 Rep. 1
[14] = MP41 cell line, replicate 2, read-out: GI50 MP41 Rep. 2
[15] = A375 (GNAQ/11 wild type), 96 hours of treatment, read-out: GI50 by cell line, A375
[16] = A375 cell line, average of Rep. 1 and 2, read-out: GI50 A375 Average
[17] = A375 cell line, replicate 1, read-out: GI50 A375 Rep. 1
[18] = A375 cell line, replicate 2, read-out: GI50 A375 Rep. 2
[19] = SK-MEL-30 (GNAQ/11 wild type), 96 hours of treatment, read-out: GI50 by cell line, SK-MEL-30
[20] = SK-MEL-30 cell line, average of Rep. 1 and 2, read-out: GI50 SK-MEL-30 Average
[21] = SK-MEL-30 cell line, replicate 1, read-out: GI50 SK-MEL-30 Rep. 1
[22] = SK-MEL-30 cell line, replicate 2, read-out: GI50 SK-MEL-30 Rep. 2

| Structure (SMILES) | GI50 [1, 7] [nM] | GI50 [1, 8] [nM] | GI50 [1, 9] [nM] | GI50 [1, 10] [nM] | GI50 [2, 11] [nM] | GI50 [2, 12] [nM] | GI50 [2, 13] [nM] | GI50 [2, 14] [nM] | GI50 [3, 15] [nM] | GI50 [3, 16] [nM] | GI50 [3, 17] [nM] | GI50 [3, 18] [nM] | GI50 [4, 19] [nM] | GI50 [4, 20] [nM] | GI50 [4, 21] [nM] | GI50 [4, 22] [nM] | loss of potency compared to compound (A1) (growth inhibition) [5] | % Fraction absorbed (MDCK-LE monolayers) [%] | % Recovery (MDCK-LE monolayers) [%] | Papp A − B (MDCK-LE monolayers) [×10⁻⁶ cm/s] | also measured |
| --- | --- | --- | --- | --- | --- | --- | --- | --- | --- | --- | --- | --- | --- | --- | --- | --- | --- | --- | --- | --- | --- |
| C=C1C(=O)N[C@@H](C)C(=O)N(C)[C@@H](C)C(=O)N[C@@H]([C@H](OC(=O)[C@@H](NC(=O)CC)[C@H](O)C(C)C)C(C)C)C(=O)N(C)[C@@H]([C@@H](C)OC)C(=O)O[C@H](CSC)[C@H](NC(C)=O)C(=O)O[C@H](Cc2ccccc2)C(=O)N1C [Compound 2] (Ac-[X5][dPhLac][NMeDha]A[NMeA][X1](Leu(3R-OH,Nα-propionyl))[NMeT](Me); ester 1-C) | 9.8 | 9.8 | 8 | 11.6 | 3.7 | 3.7 | 3.17 | 4.3 | > 260 | > 260 | > 260 | > 260 | > 260 | > 260 | > 260 | > 260 | ~15 fold | 72.6 | 72 | 6.35 | EPSA [6]: 104 A^2 |
| C=C1C(=O)N[C@@H](C)C(=O)N(C)[C@@H](C)C(=O)N[C@@H]([C@@H](CSC)OC(=O)[C@@H](NC(=O)CC)[C@H](O)C(C)C)C(=O)N(C)[C@@H]([C@@H](C)OC)C(=O)O[C@H](C(C)C)[C@H](NC(C)=O)C(=O)O[C@H](Cc2ccccc2)C(=O)N1C [Compound 3] (Ac-[X1][dPhLac][NMeDha]A[NMeA][X5](Leu(3R-OH,Nα-propionyl))[NMeT](Me); ester 1-C) | 10.4 | 10.4 | 9.05 | 11.7 | 4 | 4 | 3.12 | 4.89 | > 260 | > 260 | > 260 | > 260 | > 260 | > 260 | > 260 | > 260 | ~15 fold | 86.1 | 90 | 12.2 | EPSA [6]: 98 A^2 |
| C=C1C(=O)N[C@@H](C)C(=O)N(C)[C@@H](C)C(=O)N[C@@H]([C@H](OC(=O)[C@@H](NC(=O)CC)[C@H](O)CSC)C(C)C)C(=O)N(C)[C@@H]([C@@H](C)OC)C(=O)O[C@H](C(C)C)[C@H](NC(C)=O)C(=O)O[C@H](Cc2ccccc2)C(=O)N1C [Compound 4] (Ac-[X1][dPhLac][NMeDha]A[NMeA][X1](X4)[NMeT](Me); ester 1-C) | 1.2 | 1.2 | 0.91 | 1.5 | 0.5 | 0.5 | 0.45 | 0.53 | > 260 | > 260 | > 260 | > 260 | > 260 | > 260 | > 260 | > 260 | two-fold | 32.5 | 75 | 1.71 | EPSA [6]: 104 A^2 |
| C=C1C(=O)N[C@@H](C)C(=O)N(C)[C@@H](C)C(=O)N[C@@H]([C@H](OC(=O)[C@@H](NC(C)=O)[C@H](O)C(C)C)C(C)C)C(=O)N(C)[C@@H]([C@@H](C)OC)C(=O)O[C@H](C(C)C)[C@H](NC(C)=O)C(=O)O[C@H](Cc2ccccc2)C(=O)N1C [Compound 8] (Ac-[X1][dPhLac][NMeDha]A[NMeA][Leu(3R-O(AcLeu(3R-OH)))][NMeT](Me); ester 1-C) | 1 | 1 | 0.82 | 1.24 | 0.4 | 0.4 | 0.33 | 0.46 | > 260 | > 260 | > 260 | > 260 | > 260 | > 260 | > 260 | > 260 | two to three | 70.4 | 78 | 5.84 | EPSA [6]: 94 A^2 |
| CCC(=O)N[C@H](C(=O)O[C@H](C(C)C)[C@@H]1NC(=O)[C@H](C)N(C)C(=O)[C@H](C)NC(=O)[C@H](C)N(C)C(=O)[C@@H](Cc2ccccc2)OC(=O)[C@@H](NC(C)=O)[C@@H](C(C)C)OC(=O)[C@H]([C@@H](C)OC)N(C)C1=O)[C@H](O)C(C)C [Compound 10] (Ac-[X1][dPhLac][NMeA]A[NMeA][X1](Leu(3R-OH,Nα-propionyl))[NMeT](Me); ester 1-C) | 607 | 607 | 760 | 453 | 396 | 396 | 419 | 372 | > 10000 | > 10000 | > 10000 | > 10000 | > 10000 | > 10000 | > 10000 | > 10000 | 25-30 fold | 37.6 | 77 | 2.03 | – |
| CCC(=O)N[C@H](C(=O)O[C@H](C(C)C)[C@@H]1NC(=O)[C@H](C)N(C)C(=O)[C@H](C)NC(=O)[C@@H](C)N(C)C(=O)[C@@H](Cc2ccccc2)OC(=O)[C@@H](NC(C)=O)[C@@H](C(C)C)OC(=O)[C@H]([C@@H](C)OC)N(C)C1=O)[C@H](O)C(C)C [Compound 11] (Ac-[X1][dPhLac][dNMeA]A[NMeA][X1](Leu(3R-OH,Nα-propionyl))[NMeT](Me); ester 1-C) | 1.8 | 1.8 | 1.4 | 2.24 | 0.7 | 0.7 | 0.54 | 0.78 | > 260 | > 260 | > 260 | > 260 | > 260 | > 260 | > 260 | > 260 | two to three | 79.5 | 76 | 8.5 | EPSA [6]: 95 A^2 |
